Values of other authors, collected in PMC7940618, “Specific inhibition of the Survivin–CRM1 interaction by peptide-modified molecular tweezers” (Nature Communications, 2021).

Parameters: method as in PMID 23750919
Details: read-out: KD, affinity toward lysine; cited from earlier work

SMILES: O=P(O)(O)Oc1c2c(c(OP(=O)(O)O)c3c1C1CC3c3cc4c(cc31)C1CC4c3ccccc31)C1CC2c2cc3c(cc21)C1CC3c2ccccc21 [TW, reference compound]
- Kd: 17 µM
